# Reference: patent publication US6806359B1, “Hormone receptor compositions and methods” (The Salk Institute for Biological Studies, priority 1986, dated 2004)
# Legend:
# [1] = test system: rat GH 5′-flanking sequences in rat pituitary GC2 cells; experiment: T3 responsiveness of rat GH 5′-flanking sequence-CAT gene fusions transfected into GC2 cells; assay type: cell-based; conditions: for stimulation of CAT activity: GH −235 to −45 fused to tk promoter
# Description: […]. To overcome this problem, a rat prolactin enhancer element^11 was fused proximal to fragments of the rat GH gene containing 181 and 110 bp of 5′ flanking information. […].
# To assay 3′ deletions, fragments of the rat Gh gene were fused to the herpes simplex virus thymidine kinase (HSV tk) promoter. A fragment of the Gh gene extending from position −235 to position −45 from the CAP site produced 2.5-and 2.3-fold stimulations of CAT activity when fused to the tk promoter in native and inverse orientation, respectively (FIG. 57). […]. […].
# Thyroid hormone responsiveness of various gene fusions containing rat GH 5′-flanking sequences. FIG. 56, Responsiveness of 5′ and 3′ deletions of the rat GH gene. 5′-deleted fragments of the rat GH gene were fused to the CAT gene in a pSV2CAT-based vector^18, in which the SV40 origin of replication and promoter were removed. […]. The illustrated 3′-deleted fragments were fused to a tk promoter fragment, extending from position −197 to position +54 and placed proximal to the CAT gene in the same vector. […]. Error limits represent the standard error of the mean. Each construction was assayed two to five times. An represents SV40 polyadenylation sites. FIG. 58, Messenger RNA transcription initiation site analysis. The diagram indicates the […] primer complimentary to nucleotides 67 to 89 of the CAT coding sequence used to determine the CAP site of transcripts of plasmids containing the tk promoter. GC cells were transfected with test plasmids and hormone treated as described for the experiments presented in panels a and b. Primer extension analysis was performed on 50 micrograms total RNA. Lanes A and B represent the extension product from cells transfected with a plasmid containing the GH fragment extending from positions 235 to 45 from the CAP site fused to the tk promoter. Lanes C and D represent the extension product from cells transfected with a plasmid containing the tk promoter alone. No extension products were observed. […].
# Fusions containing the rat prolactin enhancer were made by excising this fragment (corresponding to rat prolactin sequence nucleotide positions 1831-1530) from plasmid pPSS^11 and inserting it in reverse orientation proximal to the 5′ deletions of the growth hormone element. Fusions containing the HSV tk promoter were made by excising fragments of the GH enhancer from the plasmid GPO (ref. 11) and inserting them into the BamHI and SalI sites of a pSV2CAT-based expression vectors proximal to the tk promoter at positions −197 to +54. Alternatively, the GH enhancer was placed proximal to the promoter at positions −107 to +54 in a pUC8-based vector^20 by insertion into the BamHI and SalI polylinker sites. Site-directed mutagenesis of the GH enhancer element was performed by inserting the fragment from 235-45 bp from the CAP site into the BamHI and SalI sites of M13 mp18. A 21-base oligonucleotide was synthesized which corresponded to antisense GH nucleotides −188 to −157, in which nucleotides −177 to −166 were deleted and replaced by an A nucleotide. This oligonucleotide was used to delete bases −177 to −166 in the GH enhancer using the procedure of Kunkel^21. CAT activity was determined by radioassay of methylated chloramphenicol derivatives after thin layer chromatography^19. Primer extension was by the method of Elsholtz, et al.^12
# [2] = test system: rat GH 5′-flanking sequences in rat pituitary GC2 cells; experiment: as above; assay type: cell-based; conditions: 5′ deletion to −107 with rat prolactin enhancer
# hGR [3] = experiment: hGR functional assay: CAT activity in CV-1 cells cotransfected with pRShGR alpha (or mutant) and pMTVCAT; assay type: cell-based, human; conditions: percentage of wild-type hGR activity; CV-1 cells cultured 2 days with 10 nM DEX
# Description: The assay system and strategy used to study the expression of functional hGR from the cloned cDNA (See Experimental Section I) is shown in FIG. 11. In these experiments, a glucocorticoid-responsive promoter/enhancer element linked to a reporter gene was introduced into a receptor-negative cell. […] For our assay, we chose to use the MTV LTR fused to the sequence coding for chloramphenicol acetyltransferase (CAT) (EC2.3.1.28). […] Cotransfection of pMTVCAT (or pGMCAT) with a receptor expression plasmid provides functional receptors that allow induction of CAT activity upon treatment of the transfected cells with glucocorticoid hormone. In addition, biochemical studies such as steroid binding activity and Western blot analysis of the expressed receptors can be performed simultaneously.
# (§1) The cells are then cultured in the presence or absence of hormone. CV-1 cells were used to monitor induction of CAT activity, and COS cells were used to measure steroid-binding capacity and the expression of hGR protein.
# CAT assays were performed as indicated in Experimental Procedures (See Section II. F.). C, chloramphenicol; AC, 3-acetylchloramphenicol.
# The levels of CAT activity were plotted as percentages of the maximal response observe in a particular experiment.
# Each plasmid preparation used for transfection was purified using two consecutive CsCl-EtBr equilibrium gradients. […]
# hGR [4] = experiment: Steroid binding assay ([^3H]DEX) in cytosol of COS cells transfected with hGR or mutants; design: species or system human; conditions: steroid-binding capacity as percentage of wild-type hGR
# Experimental: as §1
# COS cells were lysed in hypotonic buffer containing 10 mM Tris-HCl (pH 7.5), 10 mM NaCl, 1 mM EDTA, 5 micrograms/ml antipain, 5 micrograms/ml leupeptin, and 0.5 mM PMSF by Dounce homogenization and centrifuged 10 min. at 15,000×g to yield the cytosolic fraction. Incubations were performed in hypotonic buffer adjusted to 100 mM NaCl and contained 100 micrograms of protein from the cytosolic fraction and 2×10^−8[^3H]DEX (Amersham, 95 Ci/mmol) in total volume of 200 microliters. Nonspecific binding was measured by the addition of 2×10^−6 unlabeled DEX. Reactions were carried out at 0° C. for 2 hr., followed by a 5 min. incubation with 20 microliters of 50% dextran-coated charcoal (10:1 activated charcoal:dextran) and centrifugation at 15,000×g for 2 min. at 4° C. Supernatants were counted by liquid scintillation methods in a Beckman LS-7800 liquid scintillation spectrophotometer. Each assay usually gave 2500-3000 cpm [^3H] labeled steroid; unlabeled DEX competed for 70% of this binding.
Compound,regulation of CAT expression by T3 ([1]; 5′ deletion to −235 of rat GH gene fused to CAT) [fold],induction of CAT expression by T3 ([1]; 5′-deleted fragment to −181 with rat prolactin enhancer) [fold],"increase of correctly initiated CAT mRNA (primer extension) ([1]; 235-45 bp GH fragment fused to tk promoter, 10^−9M T3)",stimulation of CAT activity ([1]; inverse orientation) [fold],stimulation of CAT activity ([1]; native orientation) [fold],stimulation of CAT expression ([1]; construction G29TK) [fold],"stimulation of CAT expression (in words) ([1]; construction G293TK, three tandem repeats)",effect on CAT expression (in words) ([1]; mutant G delta 166/177 fused to tk promoter),stimulation of CAT expression (in words) ([1]; wild-type GH enhancer fused to tk promoter),T3 regulation of CAT expression (in words) [2],CAT Activity (%) (hGR [3]),DEX Binding (%) (hGR [4])
"N[C@@H](Cc1cc(I)c(Oc2ccc(O)c(I)c2)c(I)c1)C(=O)O [T3, 3,5,3′-triiodo-L-thyronine]",4.6,2.6,about 4 fold,2.3,2.5,2.9,five-fold,no effect,ninefold,abolished T3 regulation,–,–
"hGR alpha: wild-type human glucocorticoid receptor, alpha form, 777 amino acids",–,–,–,–,–,–,–,–,–,–,100,100
